# According to patent US4782176A, “Phenoxycarboxylic acids” (Hoffmann-La Roche Inc., priority 1983, dated 1988):
# Like-named read-outs stand apart in the source and are kept apart here.
# How the values were obtained:
# [1] = tested on: leukotriene E4-induced bronchoconstriction; assay: Guinea Pig Bronchoconstriction, In Vivo (leukotriene E4 challenge; drug i.v. or oral); details: for Guinea Pig Bronchoconstriction, In Vivo % I, 10 mg/kg I.V.: leukotriene E4 challenge; for inhibition in vivo at 100 mg/kg: Cavia porcellus, po, 100 mg/kg p.o.
# Description: (b) Guinea Pig Bronchoconstriction, In Vivo:
# Male guinea pigs (Hostley strain) weighing 300 to 450 grams are anesthetized with urethane (2 g/kg) intraperitoneally and a polyethylene cannula is inserted into the jugular vein for intravenous drug administration. Tracheal pressure is recorded from a cannula inserted in the trachea and connected to a Statham pressure transducer. Respiration is paralyzed with succinyl choline (1.2 mg/kg, i.v.) and the animals are mechanically respirated (Howard rodent respirator) at 40 breaths/minute and 2.5 cc tidal volume. Two minutes thereafter, propanolol (0.1 mg/kg, i.v.) is administered. Five minutes later, the animals are pretreated intravenously for 30 seconds (at 10 mg/kg) with test drug or control vehicle. The animals are subsequently challenged with a maximally constrictory dose of leukotriene E4 also administered intravenously. The change (cm H2 O) between pre and peak ventilatory pressure readings is averaged for three control animals and five drug treated animals. The percent inhibition is calculated from the following formula: (Control-Drug Treated/Control)×100. For determination of oral activity, spontaneously breathing animals are pretreated orally for 2 hours (at 100 mg/kg) prior to challange with leukitriene E4.
# LD50 = details: in vivo, species not given
# [2] = tested on: leukotriene E4-induced bronchoconstriction; assay: Guinea Pig Bronchoconstriction, In Vivo (Aerosol), duration of action; details: 1% aerosol; time for % inhibition to fall below 40%
# Description: (§1) Male guinea pigs (Hartley strain) weighing 300 to 500 g are anesthetized with urethane (2 g/kg) intraperitoneally and a polyethylene cannula is inserted into the jugular vein for drug administration. Tracheal pressure is recorded from a cannula inserted in the trachea and connected to a Statham pressure transducer. After surgical preparation of the animals, a period of time is allowed for pulmonary functions to stabilize. The test compound is administered according to the following protocol. Propanolol (0.1 mg/kg) is administered intravenously while the animals breathed spontaneously. Five minutes thereafter, the animals are exposed for a five minute period to a 1% (w/v) aerosol solution of test compound (adjusted to an alkaline pH where necessary for drug solubilization) or to distilled water of the appropriate pH (for control purposes). A Monaghan (Model 750) ultrasonic nebulizer is used to administer all test compounds by inhalation. The nebulizer ultrasonic frequency is adjusted to produce particles in the 1-8μ diameter range (average 3μ). Aqueous solutions are prepared fresh and introduced into the chamber of the nebulizer. The output of the nebulizer is made available to the animal by directing a bias flow of aerosol through a y tube connected to the tracheal cannula. At the end of the exposure period, the animals are paralyzed with succinylcholine (1.2 mg/kg, i.v.) and mechanically respirated (Harvard rodent respirator) at 40 breaths/minute and 2.5 cc tidal volume. Animals are then challenged with a maximum constrictory dose of leukotriene E4 delivered intravenously 30 seconds after administration of the succinylcholine.
# (§2) The change (cm H2 O) between pre and peak ventilatory pressure readings is averaged for the three control animals and five drug treated animals. The percent inhibition is calculated from the following formula: [formula] When various drug concentrations are tested, the percent inhibition at each concentration is plotted as log concentration (abscissa) versus percent inhibition (ordinate) and the IC50 is determined from linear regression analysis.
# In order to determine the duration of action (doa), the animals are prepared as described above, except that the time between aerosol exposure and challenge with LTE4 is varied. All compounds are administered at a concentration of 1%. Duration of action is calculated from plots of time (abscissa) versus % inhibition (ordinate). The duration of action is defined as the time for the % inhibition to fall below 40%.
# [3] = tested on: SRS-A-induced constriction of the guinea pig ileum; assay: Guinea Pig Ileum, In Vitro (inhibition of SRS-A-induced constriction); details: Cavia porcellus; SRS-A (EC50 dose) challenge, 37° C., atropine and pyrilamine present
# Description: (a) Guinea Pig Ileum, In Vitro:
# The guinea pig ileum bioassay system has been described by Orange and Austen, Adv. Immunol. […] A 1.5 cm segment is removed from animals weighing 300-400 g and suspended in an organ bath containing 10 ml of Tyrodes solution with 10^-6 M atropine sulfate and 10^-6 M pyrilamine maleate. […] The SRS-A utilized in this screen is obtained by challenging chopped lung fragments from actively sensitized guinea pigs with egg albumin, in vitro. A dose-response curve to SRS-A challenge is established for the ileum. […] The drug concentration which inhibits, by 50%, the SRS-A-induced constriction of the guinea pig ileum is determined.
# [4] = tested on: leukotriene E4-induced bronchoconstriction; assay: Guinea Pig Bronchoconstriction, In Vivo (Aerosol)
# Description: (c) Guinea Pig Bronchoconstriction, In Vivo (Aerosol):
# as §1, §2
# [5] = 2 hours prior to leukotriene E4 challenge
# [6] = time after exposure not given, leukotriene E4 challenge
# [7] = determined 30 seconds after exposure to test drug (footnote a)
"Guinea Pig Bronchoconstriction, In Vivo Aerosol IC50 (%) ([4]; determined 15 minutes after exposure to test drug (footnote b))",SMILES,"Guinea Pig Bronchoconstriction, In Vivo % I, 10 mg/kg I.V. [1]","oral activity in guinea pig bronchoconstriction (in words) ([1]; oral, 100 mg/kg, 2 hours prior to leukotriene E4 challenge)","inhibition in vivo at 100 mg/kg [1, 5]","LD50 (LD50; ip, read-out: LD50 i.p.)","LD50 (LD50; po, read-out: LD50 p.o.)",Aerosol Duration of Action [2],IC50 [3],"Guinea Pig Bronchoconstriction, In Vivo Aerosol IC50 (%) [4, 6]","Guinea Pig Bronchoconstriction, In Vivo Aerosol IC50 (%) [4, 7]"
,"CCCc1c(OCC(O)COc2ccc3c(=O)cc(C(=O)O)oc3c2CCC)ccc(C(C)=O)c1O (stereo not shown) [7-[3-(4-Acetyl-3-hydroxy-2-propylphenoxy)-2-hydroxypropoxy]-4-oxo-8-propyl-4H-1-benzopyran-2-carboxylic acid, reference compound]",98%,orally inactive,,,,,,,
,CCCc1c(OCCCCCOc2c(C(C)=O)ccc(OCC(=O)O)c2CCC)ccc(C(C)=O)c1O [[4-acetyl-3-[5-(4-acetyl-3-hydroxy-2-propylphenoxy)pentyloxy]-2-propylphenoxy]acetic acid],91%,,51%,140 mg/kg,900 mg/kg,55 min,100 nM,0.02%,
,CCCc1c(OCCOCCOCCOc2c(C(C)=O)ccc(OCC(=O)O)c2CCC)ccc(C(C)=O)c1O [[4-acetyl-3-[2-[2-[2-(4-acetyl-3-hydroxy-2-propylphenoxy)ethoxy]ethoxy]ethoxy]-2-propylphenoxy]acetic acid],85%,,4%,120 mg/kg,650 mg/kg,42 min,1000 nM,0.04%,
,CCCc1c(OCCOCCOCCOCCOc2c(C(C)=O)ccc(OCC(=O)O)c2CCC)ccc(C(C)=O)c1O [[4-acetyl-3-[2-[2-[2-[2-(4-acetyl-3-hydroxy-2-propylphenoxy)ethoxy]ethoxy]ethoxy]ethoxy]-2-propylphenoxy]acetic acid],90%,,,,,73 min,300 nM,0.04%,
,CCCc1c(OCCCOc2c(C(C)=O)ccc(OCC(=O)O)c2CCC)ccc(C(C)=O)c1O [[4-acetyl-3-[3-(4-acetyl-3-hydroxy-2-propylphenoxy)propoxy]-2-propylphenoxy]acetic acid],95%,,52%,90 mg/kg,500 mg/kg,90 min,2000 nM,,0.07%
,CCCc1c(OCCCOCCCOc2c(C(C)=O)ccc(OCCCC(=O)O)c2CCC)ccc(C(C)=O)c1O [4-[4-Acetyl-3-[3-[3-(4-acetyl-3-hydroxy-2-propylphenoxy)propoxy]propoxy]-2-propylphenoxy]butanoic acid],93%,,56%,,,37 min,200 nM,0.008%,
,CCCc1c(OCCCOc2c(C(C)=O)ccc(OCCCC(=O)O)c2CCC)ccc(C(C)=O)c1O [4-[4-acetyl-3-[3-(4-acetyl-3-hydroxy-2-propylphenoxy)propoxy]-2-propylphenoxy]butanoic acid],97%,,81%,650 mg/kg,770 mg/kg,,200 nM,,0.44%
,CCCc1c(OCCCCCOc2c(C(C)=O)ccc(OCCCC(=O)O)c2CCC)ccc(C(C)=O)c1O [4-[4-acetyl-3-[[5-(4-acetyl-3-hydroxy-2-propylphenoxy)pentyl]oxy]-2-propylphenoxy]butanoic acid],92%,,84%,,,46 min,1000 nM,0.01%,
,CCCc1c(OCCOCCOc2c(C(C)=O)ccc(OCC(=O)O)c2CCC)ccc(C(C)=O)c1O [[4-acetyl-3-[2-[2-(4-acetyl-3-hydroxy-2-propylphenoxy)ethoxy]ethoxy]-2-propylphenoxy]acetic acid],86%,,26%,170 mg/kg,800 mg/kg,14 min,200 nM,0.02%,
0.1%,CCCc1c(OCC(O)COc2c(C(C)=O)ccc(OCC(=O)O)c2CCC)ccc(C(C)=O)c1O (racemic) [racemic [4-acetyl-3-[3-(4-acetyl-3-hydroxy-2-propylphenoxy)-2-hydroxypropoxy]-2-propylphenoxy]acetic acid],89%,,29%,,,72 min,1000 nM,,
